Among the data in patent US20210170033A1, “NOVEL CONJUGATES OF A PHARMACEUTICAL AGENT AND A MOIETY CAPABLE OF BINDING TO A GLUCOSE SENSING PROTEIN” (SANOFI, priority 2017, published 2021) are IC50 values, retold here.

As a reminder, the IC50 is the concentration at which inhibition is half-maximal.

This assay has as its system A2780 cells. Put plainly: Deoxy-glucose uptake assay in A2780 cells (14C 2-deoxy-D-glucose transport). The format is cell-based. The following applies: Homo sapiens, 20 min; inhibition of 14C 2-deoxy-D-glucose transport into A2780 cells; 20 min compound incubation; read-out: IC50. The procedure: 1. Deoxy-Glucose Uptake Assay in A2780 Cells:
For measurement of ^14C 2-deoxy-D-glucose transport into A2780 cells, cells were seeded in 96-well plates (Cytostar-T Plates Perkin Elmer, 70,000 cells/180 μl/well) in medium complete (RPMI1640+Glutamax (Life technologies #61870)) and grown for 48 hours. After 48 h, cells were washed once with 180 μL KRB (Krebs Ringer Bicarbonate) buffer, and stimulated in a dose dependent manner by adding 10 μL of test compound dilution 0-1.1 mM (11 times higher concentration than final) or 10 μL of 1.1 mM Cytochalasin B solution as negative control, to 90 μL KRB buffer and incubated for 20 minutes. After compound stimulation, the transport of ^14C 2-deoxy-D-glucose was started by adding of 50 μL 2-^14C[U] 2-deoxy-D-glucose solution (109.1 μM 2-deoxy-D-glucose cold and 33 μM 2-^14C[U] 2-deoxy-D-glucose 0.1 μCi/well) for 20 minutes. Transport was stopped by adding 50 μL/well 96 μM Cytochalasin B solution. Plates were measured in a 96-well Wallac Microbeta device. The cpm (counts per minute) values were used to determine the % inhibition values for the test compounds within each experiment. In a first step, the mean background value generated by Cytochalasin B (a potent glucose transporter inhibitor) treated cells, was subtracted from the mean values of the treated cells. All mean values were obtained from triplicates. For %-Inhibition results, the mean value of the untreated cells (just KRB) was set as 100%. All other mean values were calculated to this relation. IC50 were obtained by regression analysis of dose response curve with 7 or 14 concentrations, respectively, for each compound.
As for `CCOC(=O)c1cccc(COc2c(Cl)cc(C(=O)N[C@H]3[C@@H](OC)O[C@H](CO)[C@@H](O)[C@@H]3O)c(C)c2Cl)n1` [Example 270], the IC50 turned out to be 27.8 µM. For `CCOC(=O)c1cccc(COc2c(Cl)cc(C(=O)O[C@H]3[C@@H](OC)O[C@H](CO)[C@@H](O)[C@@H]3O)c(C)c2Cl)n1` [Example 271], the IC50 was 4.2 µM. The same measure for `C#CCCC(=O)Nc1cc(COc2c(Cl)cc(C(=O)N[C@H]3[C@@H](OC)O[C@H](CO)[C@@H](O)[C@@H]3O)c(C)c2Cl)cnc1OC` [Example 274]: 17.9 µM; for `C#CCCCn1c(COc2c(Cl)cc(C(=O)O[C@@H]3[C@@H](O)[C@@H](OC)O[C@H](CO)[C@H]3O)c(C)c2Cl)nc2ccccc21` [Example 275]: 0.1 µM; for `COc1cc(C(=O)O[C@H]2[C@@H](OC)O[C@H](CO)[C@@H](O)[C@@H]2O)cc(Cl)c1OCc1cccc(OCC(=O)OC(C)(C)C)c1` [Example 276]: 14.4 µM. For the molecule `CO[C@H]1O[C@H](CO)[C@@H](O)[C@H](O)[C@H]1OC(=O)c1cc(Cl)c(OCc2cccc(CNC(=O)[C@H](CC(C)C)NC(=O)OC(C)(C)C)c2)c(Cl)c1C` [Example 278], the IC50 amounted to 1.6 µM. `CO[C@H]1O[C@H](CO)[C@@H](O)[C@H](O)[C@H]1OC(=O)c1cc(Cl)c(OCc2cccc(CNC(=O)[C@H](CC(C)C)N(C)C(=O)OC(C)(C)C)c2)c(Cl)c1C` [Example 279]: the IC50 is 3.4 µM. For `C#CCCCn1c(COc2c(Cl)cc(C(=O)N[C@H]3[C@@H](OC)O[C@H](CO)[C@@H](O)[C@@H]3O)c(C)c2Cl)cc2ccccc21` [Example 280], the half-inhibitory concentration (IC50) was determined as 5.9 µM. For `CCOC(=O)c1nnsc1COc1c(Cl)cc(C(=O)O[C@H]2[C@@H](OC)O[C@H](CO)[C@@H](O)[C@@H]2O)c(C)c1Cl` [Example 282] the value was 0.3 µM; for `CCOC(=O)c1nnsc1COc1c(Cl)cc(C(=O)N[C@H]2[C@@H](OC)O[C@H](CO)[C@@H](O)[C@@H]2O)c(C)c1Cl` [Example 283], 6.7 µM. In the case of `COC(=O)c1ccc(COc2c(Cl)cc(C(=O)N[C@H]3[C@@H](OC)O[C@H](CO)[C@@H](O)[C@@H]3O)c(C)c2Cl)nc1` [Example 284], the IC50 turned out to be 14.2 µM.

On to `CO[C@H]1O[C@H](CO)[C@@H](O)[C@H](O)[C@H]1OC(=O)c1cc(Cl)c(OCc2cccc(CNC(=O)[C@@H](N)CC(C)C)c2)c(Cl)c1C` [Example 285], for which the 50% inhibitory concentration (IC50) worked out at 23.2 µM. `CN[C@@H](CC(C)C)C(=O)NCc1cccc(COc2c(Cl)cc(C(=O)O[C@H]3[C@@H](OC)O[C@H](CO)[C@@H](O)[C@@H]3O)c(C)c2Cl)c1` [Example 286]: the IC50 turned out to be 4.8 µM. Turning to `CO[C@H]1O[C@H](CO)[C@@H](O)[C@H](O)[C@H]1NC(=O)c1cc(Cl)c(OCc2ccc(C(=O)OC(C)(C)C)cc2)c(Cl)c1C` [Example 296], the IC50 came out at 7.6 µM.

As to `CO[C@H]1O[C@H](CO)[C@@H](O)[C@H](O)[C@H]1NC(=O)c1cc(Cl)c(OCc2ccccc2)cc1C` [Example 297], the concentration for half-maximal inhibition (IC50) turned out to be 2.2 µM.

For `COc1c(C(=O)O[C@H]2[C@@H](OC)O[C@H](CO)[C@@H](O)[C@@H]2O)ccc(OCc2ccccc2)c1Cl` [Example 298], the IC50 came to 27.2 µM. In the case of `COC(=O)/C=C/c1ccc(COc2c(Cl)cc(C(=O)O[C@H]3[C@@H](OC)O[C@H](CO)[C@@H](O)[C@@H]3O)cc2OC)cc1` [Example 299], the IC50 was found to be 45.8 µM. Regarding `CO[C@H]1O[C@H](CO)[C@@H](O)[C@H](O)[C@H]1OC(=O)c1cc(Cl)c(OCc2ccccc2)cc1C` [Example 300], the IC50 was 6.9 µM. For `CO[C@H]1O[C@H](CO)[C@@H](O)[C@H](O)[C@H]1NC(=O)c1cc(Cl)c(OCc2nc3ccccc3n2CCCCCC(=O)OC(C)(C)C)c(Cl)c1C` [Example 301] the value was 0.1 µM.

Turning to `COc1ncc(COc2c(Cl)cc(C(=O)N[C@H]3[C@@H](OC)O[C@H](CO)[C@@H](O)[C@@H]3O)c(C)c2Cl)cc1NCC(=O)OC(C)(C)C` [Example 303], the IC50 was 0.2 µM.

`CO[C@H]1O[C@H](CO)[C@@H](O)[C@H](O)[C@H]1NC(=O)c1cc(Cl)c(OCc2cccc(OCC(=O)OC(C)(C)C)c2)c(Cl)c1C` [Example 307]: the IC50 amounted to 24 µM. Consider `COC(=O)/C=C/c1ccc(COc2c(Cl)cc(C(=O)O[C@H]3[C@@H](OC)O[C@H](CO)[C@@H](O)[C@@H]3O)c(C)c2Cl)cc1` [Example 317], for which the IC50 was found to be 14.7 µM. For the molecule `COC(=O)CCCCCNC(=O)c1cccc(COc2c(Cl)cc(C(=O)N[C@H]3[C@@H](OC)O[C@H](CO)[C@@H](O)[C@@H]3O)c(C)c2Cl)c1` [Example 323], the IC50 was found to be 28 µM. For `COc1c(C(=O)N[C@H]2[C@H](OC)O[C@H](CO)[C@@H](O)[C@@H]2O)cc(Cl)c(OCc2ccccc2)c1Cl` [Example 332] the value was 31.3 µM; for `COc1cc(C(=O)N[C@H]2[C@H](OC)O[C@H](CO)[C@@H](O)[C@@H]2O)cc(Cl)c1OCCc1ccccc1` [Example 333], 29.1 µM. With `CO[C@@H]1O[C@H](CO)[C@@H](O)[C@H](O)[C@H]1NC(=O)c1cc(Cl)cc(OCc2ccccc2)c1` [Example 334], the 50% inhibitory concentration (IC50) worked out at 30.6 µM.

As for `CO[C@@H]1O[C@H](CO)[C@@H](O)[C@H](O)[C@H]1NC(=O)c1cc(Cl)c(OCc2ccccc2)c(Cl)c1C` [Example 337], the IC50 stood at 36.4 µM.

`CO[C@@H]1O[C@H](CO)[C@@H](O)[C@H](O)[C@H]1NC(=O)c1cc(Cl)c(OCc2ccccc2)c(Cl)c1` [Example 338]: the half-maximal inhibitory concentration (IC50) is 32.2 µM. Consider `CO[C@H]1O[C@H](CO)[C@@H](O)[C@H](O)[C@H]1OC(=O)c1cc(Cl)c(OCc2cccc(CNCCCC(=O)OC(C)(C)C)c2)c(Cl)c1C` [Example 348], for which the IC50 is 31 µM. Take `COc1cc(OCc2ccccc2)c(Cl)cc1C(=O)O[C@@H]1[C@@H](O)[C@@H](OC)O[C@H](CO)[C@H]1O` [Example 350]: the IC50 is 18 µM. For the molecule `COc1cc(OCc2cccc(CNC(=O)OC(C)(C)C)c2)c(Cl)cc1C(=O)N[C@H]1[C@@H](OC)O[C@H](CO)[C@@H](O)[C@@H]1O` [Example 357], the IC50 worked out at 0.9 µM.

In the case of `COc1cc(OCc2ccccc2)ccc1C(=O)N[C@H]1[C@@H](OC)O[C@H](CO)[C@@H](O)[C@@H]1O` [Example 358], the IC50 was 91.4 µM. Consider `COc1cc(OCc2cccc(NC(=O)OC(C)(C)C)c2)c(Cl)cc1C(=O)N[C@H]1[C@@H](OC)O[C@H](CO)[C@@H](O)[C@@H]1O` [Example 359], for which the IC50 was found to be 0.4 µM. Consider `COc1cc(OCc2cccc(CNC(=O)CCC(=O)OC(C)(C)C)c2)c(Cl)cc1C(=O)O[C@@H]1[C@@H](O)[C@@H](OC)O[C@H](CO)[C@H]1O` [Example 363], for which the half-maximal inhibitory concentration (IC50) was 27.4 µM. Regarding `C#CCCCCCCCn1c(COc2c(Cl)cc(C(=O)N[C@H]3[C@@H](OC)O[C@H](CO)[C@@H](O)[C@@H]3O)c(C)c2Cl)nc2ccccc21` [Example 368], the IC50 was determined as 1.1 µM. In the case of `COC(=O)[C@H](CCC(=O)NCc1cccc(COc2cc(OC)c(C(=O)O[C@H]3[C@@H](OC)O[C@H](CO)[C@@H](O)[C@@H]3O)cc2Cl)c1)NC(=O)OC(C)(C)C` [Example 369], the IC50 was determined as 11.2 µM. The same measure for `COC(=O)[C@@H](N)CCCCNC(=O)CCCCCn1c(COc2c(Cl)cc(C(=O)N[C@H]3[C@@H](OC)O[C@H](CO)[C@@H](O)[C@@H]3O)c(C)c2Cl)nc2ccccc21` [Example 384]: 44.2 µM. On to `COC(=O)[C@H](CCCCNC(=O)CCC(=O)NCc1cccc(COc2cc(OC)c(C(=O)O[C@H]3[C@@H](OC)O[C@H](CO)[C@@H](O)[C@@H]3O)cc2Cl)c1)NC(=O)OC(C)(C)C` [Example 385], for which the IC50 came out at 22.3 µM. As for `COc1cc(OCc2ccc(OCC(=O)OC(C)(C)C)cc2)c(Cl)cc1C(=O)N[C@H]1[C@@H](OC)O[C@H](CO)[C@@H](O)[C@@H]1O` [Example 387], the 50% inhibitory concentration (IC50) worked out at 2.6 µM. Turning to `COC(=O)[C@H](CCCCNC(=O)CNc1cc(COc2c(Cl)cc(C(=O)N[C@H]3[C@@H](OC)O[C@H](CO)[C@@H](O)[C@@H]3O)c(C)c2Cl)cnc1OC)NC(=O)OC(C)(C)C` [Example 388], the IC50 came to 52.9 µM. `COc1cc(OCc2cccc(CNC(=O)CCC(=O)NCCCCCC(=O)OC(C)(C)C)c2)c(Cl)cc1C(=O)O[C@H]1[C@@H](OC)O[C@H](CO)[C@@H](O)[C@@H]1O` [Example 390]: the IC50 came out at 7.1 µM. Turning to `COC(=O)[C@H](CCCCNC(=O)CCCC(=O)NCc1cccc(COc2cc(OC)c(C(=O)O[C@H]3[C@@H](OC)O[C@H](CO)[C@@H](O)[C@@H]3O)cc2Cl)c1)NC(=O)OC(C)(C)C` [Example 391], the IC50 was 34.3 µM. As for `COc1cc(OCc2cccc(OCCCCCC(=O)OC(C)(C)C)c2)c(Cl)cc1C(=O)N[C@H]1[C@@H](OC)O[C@H](CO)[C@@H](O)[C@@H]1O` [Example 394], the half-maximal inhibitory concentration (IC50) was determined as 4 µM. Regarding `COc1cc(OCc2ccc(OCC(=O)OC(C)(C)C)cc2)c(Cl)cc1C(=O)O[C@H]1[C@@H](OC)O[C@H](CO)[C@@H](O)[C@@H]1O` [Example 395], the IC50 was determined as 1.5 µM.

For the molecule `COC(=O)c1cccn2cc(COc3cc(OC)c(C(=O)N[C@H]4[C@@H](OC)O[C@H](CO)[C@@H](O)[C@@H]4O)cc3Cl)nc12` [Example 396], the IC50 was 17.3 µM.
